Experimental findings from ChEMBL document CHEMBL1124729, “Plant antitumor agents. 29. Synthesis and biological activity of ring D and ring E modified analogues of camptothecin” (1990) are described below.

For one experiment, the system named is KB cells (Homo sapiens). As to the kind of experiment: The cytotoxic activity in vitro by 9KB assay method. The note with it: read-out: ED50 (the source's name).
The test system of experiment [1] is L1210. Put plainly: The compound was tested in vivo for life prolongation against mouse L1210 tumor cells at 80 mg/kg concentration; Inactive. Type of experiment: functional, organism-based. Details: dose 80 mg/kg.
Experiment [2] relates to Nucleic Acid. Put plainly: The compound was tested for inhibitory activity against DNA relaxation by DNA topoisomerase I at dose 10-30 uM; Inactive. Type of experiment: functional.
Experiment [3] is filed under the species Mus musculus. Put plainly: (§1) The cytotoxic activity was in vitro tested by 9PS assay method. The format is functional. The note with it: read-out: ED50 (the source's name).
The test system of experiment [4] is L1210 (Mus musculus). As to the kind of experiment: The compound was tested in vivo for life prolongation against mouse L1210 tumor cells at 80 mg/kg concentration; No toxicity.
Experiment [5] concerns Nucleic Acid. Put plainly: The compound was tested for inhibitory activity against DNA relaxation by DNA topoisomerase I at dose 30 uM. Type of experiment: functional.
The species entered for experiment [6] is Mus musculus. Put plainly: The cytotoxic activity in vitro by 9KB assay method. The note with it: read-out: ED50 (the source's name). Type of experiment: functional.
Experiment [7] can be described thus: The cytotoxic activity was in vitro tested by 9PS assay method. Type of experiment: functional. The note with it: Mus musculus; read-out: ED50 (the source's name).
The test system of experiment [8] is Nucleic Acid. As to the kind of experiment: The compound was tested for inhibitory activity against DNA relaxation by DNA topoisomerase I at dose 100 uM. Type of experiment: functional.
In experiment [9] the test system is P388. As to the kind of experiment: The compound was tested in vivo for life prolongation against mouse P388 tumor cells at 8 mg/kg concentration. The format is functional.
Experiment [10] in a line: as §1. Type of experiment: functional. The note with it: Mus musculus; read-out: ED50 (the source's name).
Experiment [11] relates to Nucleic Acid. Put plainly: The compound was tested for inhibitory activity against DNA relaxation by DNA topoisomerase I at dose 10 uM. The format is functional.
Experiment [12] concerns L1210 (Mus musculus). As to the kind of experiment: The compound was tested in vivo for life prolongation against mouse L1210 tumor cells at 30 mg/kg concentration; Nontoxic.
Experiment [13] deals with L1210. Put plainly: The compound was tested in vivo for life prolongation against mouse L1210 tumor cells at 30 mg/kg concentration; Inactive. Details: dose 30 mg/kg. The format is functional, organism-based.
The test system of experiment [14] is P388. Put plainly: The compound was tested in vivo for life prolongation against mouse P388 tumor cells at 4 mg/kg concentration. Type of experiment: functional.
Experiment [15] relates to L1210. Put plainly: The compound was tested in vivo for life prolongation against mouse L1210 tumor cells at 4 mg/kg concentration. The format is functional.
Experiment [16] deals with L1210. Put plainly: The compound was tested in vivo for life prolongation against mouse L1210 tumor cells at 40 mg/kg concentration; Inactive. Type of experiment: functional, organism-based. Set-up: dose 40 mg/kg.
Experiment [17] deals with P388. As to the kind of experiment: The compound was tested in vivo for life prolongation against mouse P388 tumor cells at 40 mg/kg concentration; No toxicity. The format is functional, organism-based. Set-up: dose 40 mg/kg.

≈ marks a conversion by molar mass, not a printed value. Calls of active or inactive are those of the source. No cut-off for these calls is given here. Bounds are passed on as bounds.

One may read the inhibition as the percentage by which the read-out fell short of the control. `CC[C@@]1(O)C(=O)NCc2c1cc1n(c2=O)Cc2cc3ccccc3nc2-1`: the EC50 in the experiment on KB cells (Homo sapiens) is over 10 µg/mL; in the experiment filed under Mus musculus [3], 3 µg/mL (≈ 8.64 µM). In addition, in the experiment on L1210 [1], the “T/C x100” value is “inactive”. Moreover, in the experiment on Nucleic Acid [2], the inhibition result was “inactive”. Besides, in the experiment on L1210 (Mus musculus) [4], the “T/C x100” value was “No toxicity”.

On to `CCC1(O)C(=O)OCc2cc3c(cc21)-c1nc2ccccc2cc1C3` (centres undefined), for which the inhibition in the experiment on Nucleic Acid [5] stood at 6%; in the experiment with Nucleic Acid [8] it was 38%. Also, the EC50 was 1.3 µg/mL (≈ 3.92 µM) in the experiment listed under Mus musculus [6] and 2.5 µg/mL (≈ 7.54 µM) in experiment [7].

Compound `CCC1(O)C(=O)OCc2c1ccc1c2-c2nc3ccccc3cc2C1` (centres undefined) had an inhibition in the experiment with Nucleic Acid [5] of 0%. Also, the EC50 in the experiment with KB cells (Homo sapiens) and in the experiment listed under Mus musculus [3] was over 10 µg/mL throughout.

Turning to `CCC1(O)C(=O)OCc2c1cc1n(c2=O)Cc2cc3ccccc3nc2-1` (centres undefined), the figures for the inhibition in the experiment on Nucleic Acid [5], with Nucleic Acid [11] and in the experiment on Nucleic Acid [8] were 48%, 39% and 70%, respectively. This compound also came in with a T/C x100 in the experiment on P388 [9] of 220%. Moreover, the figures for the EC50 (in the experiment on KB cells (Homo sapiens); in experiment [10]) were 0.03 µg/mL (≈ 0.0861 µM) and 0.04 µg/mL (≈ 0.115 µM), respectively.

On to `CCC1(N=[N+]=[N-])C(=O)OCc2c1cc1n(c2=O)Cc2cc3ccccc3nc2-1` (centres undefined), for which the EC50 in the experiment on KB cells (Homo sapiens) and in the experiment filed under Mus musculus [3] was over 10 µg/mL throughout. For the same compound, the “T/C x100” value with L1210 (Mus musculus) [12] is “Non-toxic”. The inhibition result in the experiment with Nucleic Acid [2] is “inactive”. Further, the “T/C x100” value in the experiment with L1210 [13] is “inactive”.

In the case of `CC[C@@]1(O)C(=O)OCc2c1cc1n(c2=O)Cc2cc3ccccc3nc2-1` [CAMPTOTHECIN], the figures for the inhibition with Nucleic Acid [5] and in the experiment on Nucleic Acid [11] were 85% and 76%, respectively. Moreover, the T/C x100 was determined as 199% with P388 [14] and 200% in the experiment with L1210 [15]. In addition, the EC50 turned out to be 0.02 µg/mL (≈ 0.0574 µM) with KB cells (Homo sapiens) and 0.08 µg/mL (≈ 0.23 µM) in the experiment listed under Mus musculus [3].

Take `CCC1(N)C(=O)OCc2c1cc1n(c2=O)Cc2cc3ccccc3nc2-1.Cl` (centres undefined): the figures for the EC50 with KB cells (Homo sapiens) and in the experiment listed under Mus musculus [3] were 1.6 µg/mL and 3.4 µg/mL, respectively. The “T/C x100” value in the experiment on L1210 [16] is “inactive”. Also, the inhibition result in the experiment on Nucleic Acid [2] was “inactive”. Also, the “T/C x100” value in the experiment on P388 [17] was “No toxicity”.
